Measured values published in PMC4811302, “Human β-defensin 3 contains an oncolytic motif that binds PI(4,5)P2 to mediate tumour cell permeabilisation” (Oncotarget, 2015).
Where no end group is shown, it is not given here.

Assays:
U937 cells [1] = test: Neomycin inhibition of membrane permeabilisation (PI uptake); type: cell-based, human; settings: cells pre-treated with 10 mM neomycin, PI uptake by flow cytometry; effect overcome at higher HBD-3 concentrations
Description: Cells suspended at 1×10^6 cells/mL in serum-free medium containing 0.1% (w/v) bovine serum albumin (BSA) (Sigma-Aldrich) were treated with HBD-3 at 37°C for 30 min. Nucleic acid stain propidium iodide (PI) was then added to a final concentration of 1 μg/mL and cells subjected to flow cytometry analysis using BD FACSCanto II Flow Cytometer and BD FACSDiva Software v6.1.1 (BD Biosciences, San Jose, CA). For each flow cytometry reading, 10,000 cells, gated appropriately based on forward scattering and side scattering, were recorded. The resultant data were processed using FlowJo software (Tree Star, San Carlos, CA) to determine PI-positivity, which reflects the level of membrane permeabilisation. For lipid inhibition assays, 15 μM HBD-3 was pre-incubated with 50 μM synthetic lipids, including L-α-phosphatidic acid (PA), L-α-phosphatidylcholine (PC), L-α-phosphatidylethanolamine (PE), L-α-phosphatidylserine (PS), L-α-phosphatidylinositol-4-phosphate (PI(4)P), L-α-phosphatidylinositol-3,5-bisphosphate (PI(3,5)P2), L-α-phosphatidylinositol-4,5-bisphosphate (PI(4,5)P2) and L-α-phosphatidylinositol-3,4,5-trisphosphate (PI(3,4,5)P)3. All lipids were sourced from Avanti Polar Lipids, Alabaster, AL. […]

U937 cells [2] = test: Lipid inhibition of HBD-3 mediated PI uptake; type: cell-based, human; settings: 15 μM HBD-3 pre-incubated with 50 μM synthetic lipid, flow cytometry, three independent experiments
Description: Cells suspended at 1×10^6 cells/mL in serum-free medium containing 0.1% (w/v) bovine serum albumin (BSA) (Sigma-Aldrich) were treated with HBD-3 at 37°C for 30 min. Nucleic acid stain propidium iodide (PI) was then added to a final concentration of 1 μg/mL and cells subjected to flow cytometry analysis using BD FACSCanto II Flow Cytometer and BD FACSDiva Software v6.1.1 (BD Biosciences, San Jose, CA). For each flow cytometry reading, 10,000 cells, gated appropriately based on forward scattering and side scattering, were recorded. The resultant data were processed using FlowJo software (Tree Star, San Carlos, CA) to determine PI-positivity, which reflects the level of membrane permeabilisation. For lipid inhibition assays, 15 μM HBD-3 was pre-incubated with 50 μM synthetic lipids, including L-α-phosphatidic acid (PA), L-α-phosphatidylcholine (PC), L-α-phosphatidylethanolamine (PE), L-α-phosphatidylserine (PS), L-α-phosphatidylinositol-4-phosphate (PI(4)P), L-α-phosphatidylinositol-3,5-bisphosphate (PI(3,5)P2), L-α-phosphatidylinositol-4,5-bisphosphate (PI(4,5)P2) and L-α-phosphatidylinositol-3,4,5-trisphosphate (PI(3,4,5)P)3. All lipids were sourced from Avanti Polar Lipids, Alabaster, AL. For neomycin inhibition experiments, U937 cells at 1×10^6 cells/mL were pre-treated with 10 mM neomycin (Sigma-Aldrich), followed by three centrifugal washes with phosphate buffered saline (PBS) at 500 g for 5 min.

U937 cells [3] = test: Tetrazolium-coupled cell viability assay, HBD-3 and mutants, U937; type: cell-based, human; settings: 48 h
Description: (§1) Different concentrations of HBD-3 were added to cells seeded in 96-well plates in appropriate complete medium. Initial plating cell density was pre-optimised to avoid confluence at endpoint. After 48 h, cell viability was determined using 3-(4,5-dimethylthiazol-2-yl)-2,5-diphenyltetrazolium bromide (MTT) (Sigma-Aldrich, MO) for adherent cells (HeLa, PC3, HUVEC, AHDF, CASMC) or 3-(4,5-dimethylthiazol-2-yl)-5-(3-carboxymethoxyphenyl)-2-(4-sulfophenyl)-2H-tetrazolium (MTS) (Promega, Madison, WI) coupled with phenzine methosulfate (PMS) (Promega) for suspension cells (U937, HL-60, Jurkat) prior to absorbance measurement at 570 nm and […], respectively. Absorbance readings of untreated control wells was designated as 100% cell viability.

HeLa cells = test: Tetrazolium-coupled cell viability assay, HBD-3 and mutants, HeLa; type: cell-based, human; settings: 48 h
Description: as §1

[4] = Protein-lipid overlay assay, PIP strip; type: binding; settings: 1 μg/mL protein, immunodetection, densitometry
Description: Protein-lipid overlay assays using Membrane strip™ or PIP strip™ (Echelon Biosciences, Salt Lake City, UT) were performed using 1 μg/mL proteins as described previously. Lipid binding was immunodetected using a combination of rabbit anti-HBD-3 IgG (50 μg/mL) and horseradish peroxidase-conjugated donkey-anti-rabbit Ig (10 μg/mL) antibodies. Chemiluminescence signal intensity was quantitated by densitometry analysis using ImageJ (National Institutes of Health, Bethesda, MD; http://imagej.nih.gov/ij/).

[5] = system: plasma membrane PI(4,5)P2 of U937 cells; test: Anti-PI(4,5)P2 antibody blocking assay; type: cell-based, human; settings: 15 μM defensins 30 min or 10 mM neomycin 3 h; cells fixed, saponin-lysed, FITC-conjugated anti-PI(4,5)P2 IgM, flow cytometry
Description: U937 cells at 1×10^6 cells/mL were treated with 10 mM neomycin for 3 h and/or 15 μM defensins for 30 min in serum-free RPMI 1640 medium containing 0.1% BSA, followed by 20 min fixation with 2% (v/w) paraformaldehyde (Sigma-Aldrich), 10 min lysis with 0.5% (w/v) saponin (Sigma-Aldrich), and then 30 min blocking with 3% (w/v) BSA. Three 5-min centrifugal washes with PBS at 500 g were also included between steps. FITC-conjugated mouse anti-PI(4,5)P2 IgM (Echelon Biosciences) or IgM control (GeneTex, Irvine, CA) was subsequently used at 10 μg/mL for 30 min prior to flow cytometry analysis.

[6] = ATP-encapsulated liposome leakage assay, PC:PI(4,5)P2; settings: 15 μM defensin
Description: Liposomes were generated as described previously using natural PI(4,5)P2 (porcine brain, in chloroform:methanol:water at 20:9:1 molar ratio) and PC (chicken egg, in chloroform) purchased from Avanti Polar Lipids. PC only or PC:PI(4,5)P2 (95:5 molar ratio) solutions were dried under a stream of nitrogen gas followed by overnight vacuum-drying. The lipid films were rehydrated to a final concentration of 5 mg/mL in 20 mM HEPES (pH 7.2) containing 5 mg/mL adenosine-5-triphosphate disodium salt (ATP; Sigma-Aldrich) at 37°C for 1 h. After three subsequent cycles of freezing (liquid nitrogen) and thawing (25°C), multilamellar liposomes were extruded 15–20 times through a mini-extruder (Avanti Polar Lipids). Free ATP was removed by three centrifugal washes with 20 mM HEPES at 16,500 g prior to the ATP release assay. Liposomes treated with 1% Triton X-100 were included as positive control and assigned as total lysis, whereas HEPES only control served as background reading. The level of ATP release at a particular time point was determined by quotient of the corrected reading (after subtracting background) of the sample at that time point and corrected reading of total lysis, as per the following equation: % Lysist=Samplet−HEPESt/Triton X−HEPES×100

U937 and HeLa cells = test: Cell viability assay, mutants compared to wild-type; type: cell-based, human; settings: cell viability assays, 48 h
Description: as §1

tumour cells = settings: in vitro; ref [11]; cited from earlier work
Description: The underlying mechanism was described to involve the entry of NaD1 into the cell followed by binding to PI(4,5)P2, leading to membrane permeabilisation, membrane blebbing and eventually to cell lysis.

Q: With “LL-37: another CAP that exhibits non-PI(4,5)P2-dependent detergent-like and/or pore-forming membrane disruption (LLGDFFRKSKEKIGKEFKRIVQRIKDFLRNLVPRTES; Antibacterial peptide LL-37; UniProt P49913 134-170, looked up) [reference compound]” as the substance, how does the “susceptibility of neomycin pre-incubated cells to permeabilisation compared to untreated control” value (U937 cells [1]) read?
A: not

Q: For L-α-phosphatidylcholine [PC], which “reduced PI-positivity (inhibition of HBD-3 mediated PI uptake by lipid)” value (U937 cells [2]) is on record?
A: did not show any significant inhibition

Q: Which “reduced PI-positivity (inhibition of HBD-3 mediated PI uptake by lipid)” value (U937 cells [2]) does the source give for “L-α-phosphatidylinositol-4-phosphate [PI(4)P]” here?
A: did not show any significant inhibition

Q: Which “reduced PI-positivity (inhibition of HBD-3 mediated PI uptake by lipid)” value (U937 cells [2]) does the source give for “L-α-phosphatidylinositol-3,5-bisphosphate [PI(3,5)P2]” here?
A: did not show any significant inhibition

Q: Which “fold higher IC50 compared to wild-type HBD-3” value (U937 cells [3]) does the source give for “HBD-3(K39A): alanine mutant of HBD-3 at K39, recombinantly expressed in P. pastoris (GIINTLQKYYCRVRGGRCAVLSCLPKEEQIGKCSTRGRACCRRKK; UniProt P81534 23-67, looked up, variant K39A)” here?
A: three-fold

Q: And the “fold higher IC50 compared to wild-type HBD-3” value (HeLa cells)?
A: two-fold

Q: And the “binding to PA on PIP strip compared to wild-type HBD-3” value [4]?
A: maintaining binding to PA

Q: What about the “binding to phosphoinositides/lipids on PIP strip” value [4] of the same substance?
A: pronounced loss of PIP binding

Q: What about the “blocking of anti-PI(4,5)P2 antibody binding (overall fluorescence intensity vs untreated control)” value [5] of the same substance?
A: essentially the same as that of the untreated control

Q: What about the “ability to induce ATP release from ATP-encapsulated liposomes compared to wild-type HBD-3” value [6] of the same substance?
A: impaired

Q: What about the “tumour cell cytotoxicity compared to wild-type HBD-3” value (U937 and HeLa cells) of the same substance?
A: reduced tumour cell cytotoxicity

Q: For L-α-phosphatidic acid [PA], which “reduced PI-positivity (inhibition of HBD-3 mediated PI uptake by lipid)” value (U937 cells [2]) is on record?
A: enhanced permeabilisation

Q: Which “reduced PI-positivity (inhibition of HBD-3 mediated PI uptake by lipid)” value (U937 cells [2]) does the source give for L-α-phosphatidylethanolamine [PE] here?
A: did not show any significant inhibition

Q: With “Nicotiana alata defensin 1 (RECKTESNTFPGICITKPPCRKACISEKFTDGHCSKILRRCLCTKPC; UniProt Q8GTM0 26-72, looked up) [NaD1]” as the substance, how does the “concentrations selectively killing a broad spectrum of tumour cells” value (tumour cells) read?
A: low micromolar concentrations

Q: With “HBD-3(K32A): alanine mutant of HBD-3 at K32, recombinantly expressed in P. pastoris (GIINTLQKYYCRVRGGRCAVLSCLPKEEQIGACSTRGRKCCRRKK; ends and bridges not checked; cysteine pairing not given here; UniProt P81534 23-67, looked up, variant K32A)” as the substance, how does the “binding to PA on PIP strip compared to wild-type HBD-3” value [4] read?
A: substantially retained

Q: And the “binding to phosphoinositides/lipids on PIP strip” value [4]?
A: much lower levels

Q: And the “ability to induce ATP release from ATP-encapsulated liposomes compared to wild-type HBD-3” value [6]?
A: impaired

Q: And the “tumour cell cytotoxicity compared to wild-type HBD-3” value (U937 and HeLa cells)?
A: reduced tumour cell cytotoxicity

Q: Which “reduced PI-positivity (inhibition of HBD-3 mediated PI uptake by lipid)” value (U937 cells [2]) does the source give for L-α-phosphatidylserine [PS] here?
A: ~15%

Q: Which “reduced PI-positivity (inhibition of HBD-3 mediated PI uptake by lipid)” value (U937 cells [2]) does the source give for “L-α-phosphatidylinositol-3,4,5-trisphosphate [PI(3,4,5)P3]” here?
A: 100%

Q: With “L-α-phosphatidylinositol-4,5-bisphosphate [PI(4,5)P2]” as the substance, how does the “reduced PI-positivity (inhibition of HBD-3 mediated PI uptake by lipid)” value (U937 cells [2]) read?
A: ~50%
